Biological target: MAP kinase-activated protein kinase 2 (Homo sapiens, UniProt P49137)
Sequence (P49137 whole entry): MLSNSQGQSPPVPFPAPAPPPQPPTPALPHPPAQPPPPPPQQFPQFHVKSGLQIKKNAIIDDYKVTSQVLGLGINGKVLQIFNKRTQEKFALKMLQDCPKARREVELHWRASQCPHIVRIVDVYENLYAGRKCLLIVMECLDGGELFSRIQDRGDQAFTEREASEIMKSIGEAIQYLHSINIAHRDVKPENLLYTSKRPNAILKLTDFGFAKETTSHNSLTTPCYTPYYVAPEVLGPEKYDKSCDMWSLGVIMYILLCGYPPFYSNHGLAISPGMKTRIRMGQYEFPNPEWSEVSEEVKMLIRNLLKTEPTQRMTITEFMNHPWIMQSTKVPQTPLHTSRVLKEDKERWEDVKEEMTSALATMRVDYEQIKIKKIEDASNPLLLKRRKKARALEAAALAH
Description: Concentration of 50% inhibition by compound towards mitogen activated protein kinase -activated protein kinase 2

Row | Compound | IC50 [µM]
1 | CCNc1cc2c(c(NCC)c1C#N)Cc1cc(O)c(O)cc1O2 | > 200
2 | COc1ccc2c(c1)Oc1cc(N)c(C#N)c(N)c1C2c1ccccc1 (stereo not given) | > 200
3 | N#Cc1c(N)cc2c(c1N)C(c1ccccc1)c1ccc(O)cc1O2 (stereo not given) | > 200

Now from value to compound:

Row | IC50 [µM] | Compound
4 | > 200 | N#Cc1c(N)nc2c(c1N)Cc1ccccc1S2
5 | > 200 | N#Cc1c(N)nc2c(c1N)Cc1ccccc1S2(=O)=O

From ChEMBL document CHEMBL1142035
